Reference: patent publication US20150190369A1, “QUERCETIN-3-GLUCOSIDE AND USES THEREOF” (priority 2012, published 2015)
Entries after “also recorded” stand apart in the source; their conditions may differ.

Experiments:
LDLR [1] = assay: Semi-quantitative immunoblotting for LDLR protein in Huh7 cell lysates; type: cell-based, human
Description: At passage, Huh7 cells were routinely seeded at sub-confluence (˜10^6 cells/10-cm dish) in Dulbecco's modified Eagle's medium (DMEM) containing 10% fetal bovine serum (FBS) or LPDS (for experiments) and 50 μg/ml gentamycin. They were incubated overnight at 37° C., in a humidified 5% CO2-95% air atmosphere. Cells were treated or not with Q3G at defined concentrations and for defined lengths of time. Media were collected and centrifuged at 200 g for 5 min to sediment suspended cells; supernatants were collected and supplemented with 0.33 volumes of a 3×-concentrated PIC. Cell monolayers were rinsed with ice-cold phosphate-buffered saline (PBS); they were overlaid with […] the RIPA lysis buffer (50 mM Tris-HCl, pH 8, 150 mM NaCl, 1% NP-40, 0.5% Na-deoxycholate and 0.1% SDS) supplemented with 1× PIC. After 20 min in an ice bath, the lysates were centrifuged at 14,000 g and 4° C. for 20 min, and supernatants were collected. Conditioned media and lysates were stored at −20° C. until analysis.
(§1) Cell lysates were fractionated by SDS-PAGE and electrophoretically transferred onto a polyvinylidene fluoride membrane. The membrane was incubated with a goat antihuman LDLR, rabbit anti-PCSK9, or rabbit anti-SREBP-2 polyclonal antibody at 1:1000, 1:1500, and 1:200 dilutions, respectively, and then with a HRP-conjugated heterospecific secondary antibody against the primary Igs at a 1:2000 dilution. It was probed for HRP reaction using the Western Lightning Chemiluminescence Reagent Plus a chemiluminescence-based revelation kit. The signal was captured on X-ray film and immunoreactive bands analyzed by densitometry on a Syngene's ChemiGenius^2XE Bio Imaging System (Cambridge, Mass.) within the dynamic range of the instrument. The membrane was stripped and reprobed with the anti-β-actin monoclonal primary antibody at 1:20,000 dilution and HRP-conjugated rabbit anti-mouse IgG secondary antibody at a 1:5000 dilution. The densitometric values of β-actin bands were using for normalization of experimental samples.
Huh7 cells, hepatocyte derived cellular carcinoma cells, were incubated for 24 h in medium containing 10% lipoprotein-depleted serum (LPDS) and 0 to 10 μM Q3G. The level of LDLR mRNA was measured by quantitative real-time RT-PCR; that of the LDLR protein by semi-quantitative immunoblotting. Exposure to Q3G increased the intracellular content of LDLR mRNA in a concentration-dependent manner; the increase reached a 2× maximum at 2 μM (P<0.01, relative to no Q3G) (FIG. 3A). The content of the corresponding protein followed a similar pattern, but reached a 4× maximum at 4 μM (P<0.005) (FIG. 3B).
The kinetics of cellular accumulation of LDLR and PCSK9 at 2 μM Q3G was also examined: PCSK9 accumulation in the cells began after a 3-h lag; that of LDLR after 6-h lag (FIG. 6).
Statins induce expression of LDLR and PCSK9. […] We examined whether, at a 5 μM concentration of Q3G, simvastatin at 0.2 and 1 μM could further up regulate LDLR expression in Huh7 cells; and, inversely, whether the flavonol can reduce statin-stimulated PCSK9 secretion secreted by Huh7 cells.

LDLR [2] = assay: Immunofluorescence flow cytometry of cell surface LDLR on Huh7 cells; type: cell-based, human; conditions: Huh7 pretreated 24 h with 5 μM Q3G versus untreated
Description: Cells were seeded at 4×10^4 cell/10-cm dish in 3 ml of completed medium and incubated overnight. LPDS medium containing or not 5 μM Q3G was substituted and incubation resumed for 24 h. Subsequent steps were conducted with ice-cold solutions and at 4° C. Cell monolayers were rinsed with PBS, overlaid with PBS containing rabbit anti-LDLR antibody for 1 h, then with PBS containing Alexa Fluor-488-conjugated goat anti-rabbit Ig antibody for another 1 h. After a PBS rinse, the cells were overlaid with Versene, suspended in DMEM and analyzed in Benson-Dickenson XL flow cytometer at 492 nm and 520 nm excitation and emission wavelengths, respectively. Cell autofluorescence and non-specific fluorescence were assessed using cells not treated with the secondary and the primary antibody, respectively.
To be functionally relevant, Q3G-induced LDLR should accumulate at the cell surface of the hepatocyte cells where it could mediate LDL uptake. To verify the surface localization of the receptor, untreated and pretreated intact Huh7 cells were stained at 4° C. for LDLR by indirect immunofluorescence, and analyzed by fluorescence flow cytometry.

proPCSK9 = assay: Immunoblotting for PCSK9/proPCSK9 in MIN6 β-cells; type: cell-based, mouse; conditions: MIN6, 24 h, 16 μM Q3G versus untreated
Description: (§2) The corresponding photographs of the immunoblotting results are also shown. MIN6 cells were incubated for 24 h in the presence of 16 μM Q3G. Cell lysates were analyzed by semi-quantitative immunoblotting using different antibodies successively.
(§3) Mouse insulinoma MIN6 cells were cultured in a 5% CO2-95% air atmosphere at 37° C. in DMEM medium containing 10% heat-inactivated fetal bovine serum, 1 mM Na-pyruvate, 2 mM L-glutamine, 25 mM D-glucose, and 28 μM β-mercaptoethanol. Q3G at a specific final concentration was supplemented to the culture medium and incubation was conducted for a selected length of time. Media were collected, spun at 600 g to sediment suspended cells, supplemented with 0.5 volumes of 3×RIPA-PIC (1×: 50 mM Tris-HCl, pH 8, 150 mM NaCl, 1% NP-40, 0.5% Na-deoxycholate and 0.1% SDS and PIC). Cells were lysed in 1×RIPA-PIC for immuno-blotting, or in RNA extraction buffer for qRT-PCR.
(§4) Cell lysates were fractionated by SDS-PAGE and electrophoretically transferred onto a polyvinylidene fluoride membrane. […] The signal was captured on X-ray film and immunoreactive bands analyzed by densitometry on a Syngene's ChemiGenius^2XE Bio Imaging System (Cambridge, Mass.) within the dynamic range of the instrument. […]

HNF-1α = assay: Immunoblotting for HNF-1α in cells exposed to Q3G; type: cell-based; conditions: cells incubated 24 h with Q3G
Description: FIG. 3 is a graph illustrating hepatocyte nuclear factor la (HNF-1α) expression in cells on exposure to Q3G. Cells were incubated for 24 h in medium containing the indicated concentrations of Q3G. Cells lysates were analyzed by semi-quantitative immunoblotting for the levels of HNF-1α.
as §1

ABCG1 = assay: Immunoblotting for ABCG1 in MIN6 β-cells; type: cell-based, mouse; conditions: MIN6, Q3G-treated
Description: as §2, §3, §4

recombinant human PCSK9 = recombinant human PCSK9 (Homo sapiens, UniProt Q8NBP7); assay: UV spectrometry of PCSK9-Q3G interaction; type: binding; conditions: 5 μM PCSK9 with equimolar Q3G in PBS, 5-min incubation
Sequence of recombinant human PCSK9 (Q8NBP7 153-692): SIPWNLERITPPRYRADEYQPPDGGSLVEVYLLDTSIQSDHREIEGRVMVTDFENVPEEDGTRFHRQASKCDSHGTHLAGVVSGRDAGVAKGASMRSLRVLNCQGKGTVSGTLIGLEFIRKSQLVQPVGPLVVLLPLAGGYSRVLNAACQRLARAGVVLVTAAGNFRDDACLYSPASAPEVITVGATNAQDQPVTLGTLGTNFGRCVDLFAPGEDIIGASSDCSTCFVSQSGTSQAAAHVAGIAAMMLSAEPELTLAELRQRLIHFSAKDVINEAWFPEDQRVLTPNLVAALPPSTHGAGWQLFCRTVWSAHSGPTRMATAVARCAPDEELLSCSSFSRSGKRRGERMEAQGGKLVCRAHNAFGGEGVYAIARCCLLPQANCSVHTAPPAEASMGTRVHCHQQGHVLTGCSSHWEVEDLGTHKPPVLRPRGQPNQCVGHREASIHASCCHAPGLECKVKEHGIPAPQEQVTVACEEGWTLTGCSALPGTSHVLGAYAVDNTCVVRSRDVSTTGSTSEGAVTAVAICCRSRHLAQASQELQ
Description: The data discussed herein indicate that chronic exposure of Huh7 cells to Q3G reduces PCSK9 accumulation in the culture medium by delaying its transit through the secretory pathway. The delay appears not to be caused by impaired proteolytic processing of its precursor. Quercetin is known to bind, covalently in some cases, to selected cellular proteins. […] Purified recombinant PCSK9 (5μM) was mixed with or without equimolar amount of Q3G in phosphate-buffered saline. After a 5-min incubation, the UV spectrum of the mix was taken. […] It is believed that such a binding may alter PCSK9 conformation and/or retard its navigation through the secretory pathway, and, ultimately, diminish its LDL-degrading activity.

O=c1c(O[C@@H]2O[C@H](CO)[C@@H](O)[C@H](O)[C@H]2O)c(-c2ccc(O)c(O)c2)oc2cc(O)cc(O)c12 [Q3G, quercetin-3-O-β-D-glucoside]
lag before LDLR accumulation in the cells (LDLR [1]; Huh7, 2 μM Q3G, time course): 6 h | increase of LDLR protein content (maximum) (LDLR [1]; Huh7, 24 h, 10% LPDS, 0 to 10 μM Q3G, maximum at 4 μM): 4 × | level of cellular LDLR (LDLR [1]; Huh7, 24 h, co-treatment 5 μM Q3G with simvastatin 0.2 and 1 μM): increased cellular LDLR to the level induced by the flavonol alone | effect of high concentrations on stimulation of LDLR expression (LDLR [1]; Huh7, 24 h, high Q3G concentrations (>20 NM), concentration-dependent): attenuated; also recorded: attenuation | increase of LDLR cell surface density (LDLR [2]): 1.7 fold | intracellular content of proPCSK9 (proPCSK9): higher | level of HNF-1α (HNF-1α): does not change | relative amount of ABCG1 protein compared with mRNA (ABCG1): in concordance with the relative amounts of mRNA | interaction with PCSK9 (changes of optical density and spectral profile) (recombinant human PCSK9): suggest interaction
